Bounds are passed on as bounds.

This assay deals with T1, TDO2 (Homo sapiens, UniProt P48775).
T1 construct: decreased levels of NFK in SW48 cells (high TDO expressing cells)
T1 sequence (P48775 whole entry): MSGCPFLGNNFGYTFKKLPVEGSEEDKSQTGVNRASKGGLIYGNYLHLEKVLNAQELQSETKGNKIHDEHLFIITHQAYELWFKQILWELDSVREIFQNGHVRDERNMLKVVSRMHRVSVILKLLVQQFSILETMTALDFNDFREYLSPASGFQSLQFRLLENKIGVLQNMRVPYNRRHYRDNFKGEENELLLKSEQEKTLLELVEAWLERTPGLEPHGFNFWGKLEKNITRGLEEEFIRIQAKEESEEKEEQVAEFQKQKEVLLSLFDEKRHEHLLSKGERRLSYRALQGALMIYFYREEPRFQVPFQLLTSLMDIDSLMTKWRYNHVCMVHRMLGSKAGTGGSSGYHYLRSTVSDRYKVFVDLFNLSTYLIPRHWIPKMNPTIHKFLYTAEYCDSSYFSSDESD
The assay is described as follows: TDO2 cell assay (NFK GreenScreen, SW48 cells). The assay is classed as cell-based. To be noted: SW48 cells (high TDO expressing), 200 uM tryptophan, 24 hours; Table 3; read-out: TDO2 Cell Fluor EC50.
The term EC50 denotes the midpoint of the concentration-response curve. Turning to `CC1(C)COC[C@@H]([C@H]2c3ccccc3-c3cncn32)[C@H]1O` [Example 66a, (4R,5R)-5-((S)-5H-imidazo[5,1-a]isoindol-5-yl)-3,3-dimethyltetrahydro-2H-pyran-4-ol], the EC50 is above 25 µM.

With `O[C@@H]1CCOC[C@H]1[C@H]1c2ccc(F)cc2-c2cncn21` (single isomer, unassigned) [Example 34b], the EC50 was above 25 µM.

As for `OC1c2cccnc2CCC1C1c2ccccc2-c2cncn21` (single isomer, unassigned) [Example 31f], the EC50 was 0.082 µM.

In the case of `OC1CCOCC1C1c2c(Cl)cccc2-c2cncn21` (single isomer, unassigned) [Example 69d], the 50% effective concentration (EC50) was above 25 µM.

`O[C@@H]1CCOC[C@H]1[C@H]1c2ccc(F)cc2-c2cncn21` (single isomer, unassigned) [Example 34a]: the EC50 turned out to be 1.8 µM.

With `O=S(=O)(C1CC1)N1CC[C@@H]([C@@H]2c3ccccc3-c3cncn32)[C@H](O)C1` (single isomer, unassigned) [Example 81b], the EC50 is above 25 µM.

For `Cc1cc2c(cn1)[C@H](O)[C@H]([C@@H]1c3ccccc3-c3cncn31)C2` [Example 59b, (6S,7R)-6-((R)-5H-imidazo[5,1-a]isoindol-5-yl)-3-methyl-6,7-dihydro-5H-cyclopenta[c]pyridin-7-ol], the EC50 turned out to be 0.82 µM.

On to `OC1C(C2c3ccccc3-c3cncn32)CC12CCOCC2` (single isomer, unassigned) [Example 57d], for which the 50% effective concentration (EC50) is above 25 µM.

As for `CC1(C)CCC(C2c3ccccc3-c3cncn32)C1O` (single isomer, unassigned) [Example 23d], the 50% effective concentration (EC50) was found to be 0.11 µM.

On to `O[C@H]1c2ccnn2CC[C@@H]1[C@@H]1c2ccccc2-c2cncn21` [Example 56d, (4R,5R)-5-((R)-5H-imidazo[5,1-a]isoindol-5-yl)-4,5,6,7-tetrahydropyrazolo[1,5-a]pyridin-4-ol], for which the EC50 is above 25 µM.

For the molecule `OC1CCCOCC1C1c2ccccc2-c2cncn21` (single isomer, unassigned) [Example 86f], the EC50 is 0.15 µM.

On to `NC(=O)c1ccc2c(n1)CCC(C1c3ccccc3-c3cncn31)C2O` (single isomer, unassigned) [Example 104a], for which the EC50 amounted to 2.2 µM.

For `OC1c2nonc2CCC1C1c2ccccc2-c2cncn21` (single isomer, unassigned) [Example 163h], the EC50 stood at 0.93 µM.

In the case of `OC1c2ccccc2CCC1C1c2ccccc2-c2cncn21` (single isomer, unassigned) [Example 102a], the EC50 came to 0.072 µM.

Consider `CC(=O)N1CCC(O)C(C2c3ccccc3-c3cncn32)C1` (single isomer, unassigned) [Example 12a], for which the EC50 came out at 2.7 µM.

As for `OC1CCOCC1C1c2cccc(F)c2-c2cncn21` (single isomer, unassigned) [Example 170d], the EC50 amounted to 13 µM.

In the case of `OC1(C2c3ccccc3-c3cncn32)CCCc2ccncc21` (single isomer, unassigned) [Example 141c], the EC50 was above 25 µM.

With `OC1COCC1C1c2ccccc2-c2cncn21` (single isomer, unassigned) [Example 26c], the half-maximal effective concentration (EC50) was 0.71 µM.

`CC1(C)CCCC(C2c3ccccc3-c3cncn32)C1O` (single isomer, unassigned) [Example 24h]: the EC50 stood at 12 µM.

Regarding `OC1c2ccnn2CCCC1C1c2ccccc2-c2cncn21` (single isomer, unassigned) [Example 133f], the concentration for a half-maximal effect (EC50) is above 25 µM.

Consider `OC1c2ccnn2CCC1C1c2ccccc2-c2cncn21` (single isomer, unassigned) [Example 56g], for which the EC50 was above 25 µM.

On to `OC1c2nonc2CCC1C1c2ccccc2-c2cncn21` (single isomer, unassigned) [Example 163f], for which the concentration for a half-maximal effect (EC50) was above 25 µM.

On to `NC(=O)C1([C@@H](O)[C@H]2c3ccccc3-c3cncn32)CC1` [Example 165a, 1-((R)-hydroxy((R)-5H-imidazo[5,1-a]isoindol-5-yl)methyl)cyclopropane-1-carboxamide], for which the half-maximal effective concentration (EC50) was determined as 16 µM.

These data come from patent publication US12583858B2 (Genentech, Inc., priority 2015, dated 2026).
